In patent US11205502B2, “Processing method and processing apparatus for efficacy of combined drug” (Institute of radiation medicine, academy of military …, priority 2015, dated 2021):

System: human hepatocellular carcinoma cell HepG2
Experiment: MTT method, growth inhibition of HepG2 by NX, TX and NX/TX combined application; expected additive effect by equivalent dose conversion
Assay type: cell-based
Details: for Efficacy of TX / Efficacy of NX: from fitted single-use equation
Text: Title: the nitrohydroxyl compound (NX) is an anti-infectious drug. […] Taxol (TX) is an anticancer drug frequently used in clinic. In an NX/TX combined application, the growth of a human hepatocellular carcinoma cell HepG2 is inhibited in an MTT method. A method for quantitatively processing relevant indexes of synergistic/additive/antagonistic effect is described, which provides a reference for research and development of a novel anticancer compound.
Step 1: a dose-effect relationship table of dose levels of each single drug and each member in a combined group is prepared, and a respective dose-effect relationship curve equation is fitted. For dose-effect relationship data among the NX, the TX and the single drug, the NX+TX at a fixed proportion in combined use (1/1, μg/ml+ng/ml), and dose-effect relationship data of the TX at a fixed concentration (2 ng/ml)+the NX at different concentrations in the combined use, see a table 1.
Step 2: the dose is converted sequentially, and each line of the dose-effect relationship data formed into an expected additive efficacy curve band under a combined condition is calculated.
Descriptions on numerical calculation in each column of the table 2: (3) column: data in (2) column are calculated with the formula (2); (4) column: data in (3) column are calculated with the formula (1); (5) column: (1) column+(4) column; (6) column: data in (5) column are calculated with the formula (1).
Descriptions on numerical calculation in each column: (7) column: data in (1) column are calculated with the formula (1); (8) column: data in (7) column are calculated with the formula (2); (9) column: (2) column+(8) column; (10) column: data in (9) column are calculated with the formula (2); “-” indicates to be beyond the dose-effect range of the TX.
Descriptions on numerical calculation in each column: (3) column: from the table 2; (4) column: from the table 3; (5) column: from the table 1; (6) column: (5) column data/(3) column data; (7) column: (5) column data/(4) column data; (8) column: standards are referred to the previous CId calculation.

CC(=O)O[C@H]1C(=O)[C@@]2(C)[C@H]([C@H](OC(=O)c3ccccc3)[C@]3(O)C[C@H](OC(=O)[C@H](O)[C@@H](NC(=O)c4ccccc4)c4ccccc4)C(C)=C1C3(C)C)[C@]1(OC(C)=O)CO[C@@H]1C[C@@H]2O [TX, Taxol]
inhibition at 0.0005 µg/mL (Homo sapiens, HepG2, TX 0.5 ng/ml single use, read-out: Inhibition rate): 4.5% | inhibition at 0.001 µg/mL (Homo sapiens, HepG2, TX 1 ng/ml single use, read-out: Inhibition rate): 14.1% | inhibition at 0.002 µg/mL (Homo sapiens, HepG2, TX 2 ng/ml single use, read-out: Inhibition rate): 32.5% | inhibition at 0.004 µg/mL (Homo sapiens, HepG2, TX 4 ng/ml single use, read-out: Inhibition rate): 59.3% | inhibition at 0.008 µg/mL (Homo sapiens, HepG2, TX 8 ng/ml single use, read-out: Inhibition rate): 80.3% | inhibition at 0.016 µg/mL (Homo sapiens, HepG2, TX 16 ng/ml single use, read-out: Inhibition rate): 87.4% | Efficacy of TX (TX 0.5 ng/ml): 4.9763% | Efficacy of TX (TX 0.6 ng/ml): 6.4296% | Efficacy of TX (TX 0.7 ng/ml): 8.0213% | Efficacy of TX (TX 0.8 ng/ml): 9.7270% | Efficacy of TX (TX 0.9 ng/ml): 11.5241% | Efficacy of TX (TX 1 ng/ml): 13.3922% | Efficacy of TX (TX 1.2 ng/ml): 17.2688% | Efficacy of TX (TX 1.4 ng/ml): 21.2305% | Efficacy of TX (TX 1.6 ng/ml): 25.1792% | Efficacy of TX (TX 1.8 ng/ml): 29.0423% | Efficacy of TX (TX 2 ng/ml): 32.7687% | Efficacy of TX (TX 2.4 ng/ml): 39.6901% | Efficacy of TX (TX 2.8 ng/ml): 45.8191% | Efficacy of TX (TX 3.2 ng/ml): 51.1569% | Efficacy of TX (TX 3.6 ng/ml): 55.7657% | Efficacy of TX (TX 4 ng/ml): 59.7311% | Efficacy of TX (TX 5 ng/ml): 67.3956% | Efficacy of TX (TX 6 ng/ml): 72.7395% | Efficacy of TX (TX 7 ng/ml): 76.5600% | Efficacy of TX (TX 8 ng/ml): 79.3653% | Efficacy of TX (TX 10 ng/ml): 83.1039% | Efficacy of TX (TX 12 ng/ml): 85.4029% | Efficacy of TX (TX 14 ng/ml): 86.9144% | Efficacy of TX (TX 16 ng/ml): 87.9614%

O=[N+]([O-])c1ccc(O)c2ncccc12 [NX, nitrohydroxyl compound]
Inhibition rate (NX 0.5 μg/ml single use): 5.5% | Efficacy of NX (NX 0.5 μg/ml): 5.5596% | Efficacy of NX (NX 0.6 μg/ml): 6.4726% | Efficacy of NX (NX 0.7 μg/ml): 7.7324% | Efficacy of NX (NX 0.8 μg/ml): 9.3724% | Efficacy of NX (NX 0.9 μg/ml): 11.4093% | Inhibition rate (NX 1 μg/ml single use): 14% | Efficacy of NX (NX 1 μg/ml): 13.8409% | Efficacy of NX (NX 1.2 μg/ml): 19.7842% | Efficacy of NX (NX 1.4 μg/ml): 26.8326% | Efficacy of NX (NX 1.6 μg/ml): 34.4514% | Efficacy of NX (NX 1.8 μg/ml): 42.0953% | Inhibition rate (NX 2 μg/ml single use): 49.2% | Efficacy of NX (NX 2 μg/ml): 49.3297% | Efficacy of NX (NX 2.4 μg/ml): 61.6284% | Efficacy of NX (NX 2.8 μg/ml): 70.7302% | Efficacy of NX (NX 3.2 μg/ml): 77.1469% | Efficacy of NX (NX 3.6 μg/ml): 81.6125% | Inhibition rate (NX 4 μg/ml single use): 84.9% | Efficacy of NX (NX 4 μg/ml): 84.7367% | Efficacy of NX (NX 5 μg/ml): 89.1832% | Efficacy of NX (NX 6 μg/ml): 91.2729% | Efficacy of NX (NX 7 μg/ml): 92.3603% | Inhibition rate (NX 8 μg/ml single use): 92.9% | Efficacy of NX (NX 8 μg/ml): 92.9754% | Efficacy of NX (NX 10 μg/ml): 93.5845% | Efficacy of NX (NX 12 μg/ml): 93.8519% | Efficacy of NX (NX 14 μg/ml): 93.9866% | Inhibition rate (NX 16 μg/ml single use): 94.1% | Efficacy of NX (NX 16 μg/ml): 94.0615% | NX dose limits of the additive effect (TX fixed dose 2 ng/ml): 2.1229−4.5777 μg/ml
